According to patent US7223759B2, “Antibacterial 3,5-diaminopiperidine-substituted aromatic and heteroaromatic compounds” (Anadys Pharmaceuticals, Inc., priority 2003, dated 2007):
Like-named read-outs stand apart in the source and are kept apart here.

Tested on: Escherichia coli (ATCC25922) or Staphylococcus aureus (ATCC25923)
Experiment: Antibacterial MIC, microdilution method in Mueller-Hinton medium
Assay type: cell-based
Conditions: Escherichia coli, 18 h, read-out: Potency (MIC)
Method: The antibacterial activity of the Formula I compounds was evaluated against standard bacterial strains by determining the minimal inhibitory concentration (MIC) to block growth. Each drug was assayed by the microdilution method in Mueller-Hinton medium, as recommended by the National Committee for Clinical Laboratory Standards. Approved Standard M7-A5: Methods for Dilution Antimicrobial Susceptibility Tests for Bacteria That Grow Aerobically 5th Ed. (National Committee for Clinical Laboratory Standards, Wayne, Pa., 2000). The tested bacterial strains included Escherichia coli (American Type Collection ATCC25922), Staphylococcus aureus (ATCC25923), and Pseudomonas aeruginosa (ATCC27853). Two-fold serial dilutions of each compound ranging from 64 to 0.5 μg/ml were tested in duplicate. The MIC was determined as the lowest concentration of each compound that prevented bacterial growth after 18 hours of incubation at 35° C. […] The mass of each compound in the Table was confirmed by LC-MS.

[1] = MIC in E. coli or S. aureus, two-fold serial dilutions 64 to 0.5 μg/ml in duplicate, 18 hours of incubation at 35° C.

Row | SMILES | MIC [1] [µg/mL] | MIC [µg/mL]
1 | Cc1cc(NS(=O)(=O)c2ccc(Nc3nc(N4C[C@H](N)C[C@H](N)C4)nc(N4C[C@H](N)C[C@H](N)C4)n3)cc2)nc(C)n1.Cl [N-[4-(2,6-dimethyl-pyrimidin-4-ylsulfamoyl)-phenyl]-4,6-Bis-((3R,5S)-3,5-diamino-piperidin-1-yl)-[1,3,5]triazine-2-amine] | > 64 | –
2 | COc1nc(Nc2ccc3c(c2)C(=O)c2ccccc2-3)nc(N2C[C@H](N)C[C@H](N)C2)n1 [2-[4-((3R,5S)-3,5-Diamino-piperidin-1-yl)-6-methoxy-[1,3,5]triazin-2-ylamino]-fluoren-9-one] | – | > 64
3 | N[C@@H]1C[C@H](N)CN(c2nc(Nc3ccc(NC(=O)c4ccc(Cl)cc4)c(O)c3)nc(N3C[C@H](O)C[C@@H](O)C3)n2)C1 [4-Chloro-N-{4-[4-((3S,5R)-3,5-diamino-piperidin-1-yl)-6-((3R,5R)-3,5-dihydroxy-piperidin-1-yl)-[1,3,5]triazin-2-ylamino]-2-hydroxy-phenyl}-benzamide] | – | < 64
4 | CCn1c(-c2cccc(Nc3nc(N4C[C@H](N)C[C@H](N)C4)nc(N4C[C@H](N)C[C@H](N)C4)n3)c2)cc(=O)n1-c1ccccc1 [N-[3-(2-ethyl-5-oxo-1-phenyl-2,5-dihydro-1H-pyrazol-3-yl)-phenyl]-4,6-Bis-((3R,5S)-3,5-diamino-piperidin-1-yl)-[1,3,5]triazine-2-amine] | – | > 64
5 | N[C@@H]1C[C@H](N)CN(c2nc(Nc3ccc(NC(=O)c4ccc5ccccc5c4O)cc3)nc(N3CCC[C@@H](O)C3)n2)C1 [1-Hydroxy-naphthalene-2-carboxylicacid {4-[4-((3S,5R)-3,5-diamino-piperidin-1-yl)-6-((R)-3-hydroxy-piperidin-1-yl)-[1,3,5]triazin-2-ylamino]-phenyl}-amide] | – | < 64
6 | N[C@@H]1C[C@H](N)CN(c2nc(Nc3cccc([N+](=O)[O-])c3)nc(N3C[C@H](N)C[C@H](N)C3)n2)C1 [N-(3-nitro-phenyl)-4,6-Bis-((3R,5S)-3,5-diamino-piperidin-1-yl)-[1,3,5]triazine-2-amine] | – | > 64
7 | Cl.NC(=O)c1[nH]cnc1Nc1nc(N2C[C@H](N)C[C@H](N)C2)nc(N2C[C@H](N)C[C@H](N)C2)n1 [N-(5-carbamoyl-1H-imidazol-4-yl)-4,6-Bis-((3R,5S)-3,5-diamino-piperidin-1-yl)-[1,3,5]triazine-2-amine] | > 64 | –
8 | NC[C@@H]1C[C@@H](O)CN1c1nc(Nc2ccc(C(=O)CC(=O)Nc3ccccc3Cl)cc2)nc(N2C[C@H](N)C[C@H](N)C2)n1 [3-{4-[4-((2S,4R)-2-Aminomethyl-4-hydroxy-pyrrolidin-1-yl)-6-((3R,5S)-3,5-diamino-piperidin-1-yl)-[1,3,5]triazin-2-ylamino]-phenyl}-N-(2-chloro-phenyl)-3-oxo-propionamide] | – | < 64
9 | CN1CCCC1CCNc1nc(N2C[C@H](N)C[C@H](N)C2)nc(N2C[C@H](N)C[C@H](N)C2)n1.Cl (stereo partly drawn) [N-[2-(1-medthyl-pyrrolidin-2-yl)-ethyl]-4,6-Bis-((3R,5S)-3,5-diamino-piperidin-1-yl)-[1,3,5]triazine-2-amine] | > 64 | –
10 | N[C@@H]1C[C@H](N)CN(c2nc(N3C[C@H](N)C[C@H](N)C3)nc(-n3ccc4cc(Br)ccc43)n2)C1 [5-Bromo-1-(4,6-Bis-((3R,5S)-3,5-diamino-piperidin-1-yl)-[1,3,5]triazain-2-yl)-1H-indole] | – | < 64
11 | Cl.N[C@@H]1C[C@H](N)CN(c2nc(Nc3cccc(Br)c3)nc(N3C[C@H](N)C[C@H](N)C3)n2)C1 [N-(3-bromo-phenyl)-4,6-Bis-((3R,5S)-3,5-diamino-piperidin-1-yl)-[1,3,5]triazine-2-amine] | < 64 | –
12 | N[C@@H]1C[C@H](N)CN(c2nc(Nc3ccc(NS(=O)(=O)c4ccccc4)c(O)c3)nc(N3C[C@H](N)C[C@H](N)C3)n2)C1 [N-(4-benzenesulfonylamino-3-hydroxy-phenyl)-4,6-Bis-((3R,5S)-3,5-diamino-piperidin-1-yl)-[1,3,5]triazine-2-amine] | – | < 64
13 | N[C@@H]1C[C@H](N)CN(c2nc(Nc3ccc(NC(=O)c4cccc([N+](=O)[O-])c4O)cc3)nc(N3C[C@H](N)C[C@H](N)C3)n2)C1 [N-[4-(2-hydroxy-3-nitro-benzoylamino)-phenyl]-4,6-Bis-((3R,5S)-3,5-diamino-piperidin-1-yl)-[1,3,5]triazine-2-amine] | – | > 64
14 | N[C@@H]1C[C@H](N)CN(c2nc(Nc3ccc(C(=O)Nc4ccc(-c5ccccc5)cc4)c(O)c3)nc(N3C[C@H](N)C[C@H](N)C3)n2)C1 [N-[4-(biphenyl-4-ylcarbamoyl)-3-hydroxy-phenyl]-4,6-Bis-((3R,5S)-3,5-diamino-piperidin-1-yl)-[1,3,5]triazine-2-amine] | – | < 16
15 | COc1ccc(Nc2nc(N3C[C@H](N)C[C@H](N)C3)nc(N3C[C@H](N)C[C@H](N)C3)n2)c(NC(=O)c2cccc([N+](=O)[O-])c2O)c1 [N-[2-(2-hydroxy-3-nitro-benzoylamino)-4-methoxy-phenyl]-4,6-Bis-((3R,5S)-3,5-diamino-piperidin-1-yl)-[1,3,5]triazine-2-amine] | – | > 64
16 | Cl.Oc1cccc2ccc(Nc3nc(N4CCCCC4)nc(N4CCCCC4)n3)nc12 [N-(8-hydroxy-quinolin-2-yl)-4,6-Bis-((3R,5S)-3,5-diamino-piperidin-1-yl)-[1,3,5]triazine-2-ammine] | > 64 | –
17 | N[C@@H]1C[C@H](N)CN(c2nc(Nc3ccc(C(=O)CC(=O)Nc4ccc(F)c(F)c4)cc3)nc(N3C[C@@H](N)C[C@H]3CO)n2)C1 [3-{4-[4-((2S,4S)-4-Amino-2-hydroxymethyl-pyrrolidin-1-yl)-6-((3R,5S)-3,5-diamino-piperidin-1-yl)-[1,3,5]triazin-2-ylamino]-phenyl}-N-(3,4-difluoro-phenyl)-3-oxo-propionamide] | – | < 64
18 | COc1cc(NC(=O)CC(=O)c2ccc(Nc3nc(N4C[C@H](N)C[C@H](N)C4)nc(N4C[C@H](N)C[C@H](N)C4)n3)cc2)c(OC)cc1Cl [N-{4-[2-(4-chloro-2,5-dimethoxy-phenylcarbamoyl)-acetyl]-phenyl}-4,6-Bis-((3R,5S)-3,5-diamino-piperidin-1-yl)-[1,3,5]triazine-2-amine] | – | < 16
19 | CSc1ccc(CNc2nc(N3C[C@H](N)C[C@H](N)C3)nc(N3C[C@H](N)C[C@H](N)C3)n2)cc1 [N-(4-methylsulfanyl-benzyl)-4,6-Bis-((3R,5S)-3,5-diamino-piperidin-1-yl)-[1,3,5]triazine-2-amine] | – | < 64
20 | Cc1cc(=O)oc2cc(Nc3nc(N4CCCCC4)nc(N4CCCC4)n3)ccc12.Cl [7-[4-((3R,5S)-33,5-Diamino-piperidin-1-yl)-6-((3R,4S)-3,4-dihydroxy-pyrrolidin-1-yl)-[1,3,5]triazin-2-ylamino]-4-methyl-chromen-2-one] | > 64 | –
21 | Cc1cc(Cl)ccc1CNc1nc(N2CCCCC2)nc(N2CCCCC2)n1.Cl [N-(4-chloro-2-methyl-benzyl)-44,6-Bis-((3R,5S)-3,5-diamino-piperidin-1-yl)-[1,3,5]triazine-2-amine] | > 64 | –
22 | Cc1cc(Nc2nc(N3C[C@H](N)C[C@H](N)C3)nc(N3C[C@H](N)C[C@H](N)C3)n2)ccc1NC(=O)c1ccc(O)cc1O [N-[4-(2,4-dihydroxy-benzoylamino)-3-methyl-phenyl]-4,6-Bis-((3R,5S)-3,5-diamino-piperidin-1-yl)-[1,3,5]triazine-2-amine] | < 16 | –
23 | N[C@@H]1C[C@H](N)CN(c2ccc(NC(=O)c3ccc4ccccc4c3O)cc2)C1 [1-Hydroxy-naphthalene-2-carboxylicacid [4-((3S,5R)-3,5-diamino-piperidin-1-yl)-phenyl]-amide] | – | > 64
24 | N[C@@H]1C[C@H](N)CN(c2nc(Nc3ccc(C(=O)CC(=O)Nc4ccc(SC(F)(F)F)cc4)cc3)nc(N3C[C@H](N)C[C@H](N)C3)n2)C1 [N-{4-[2-(4-trifluoromethylsulfanyl-phenylcarbamoyl)-acetyl]-phenyl}-4,6-Bis-((3R,5S)-3,5-diamino-piperidin-1-yl)-[1,3,5]triazine-2-amine] | – | < 16
25 | Cc1ccc(S(=O)(=O)N(Cc2ccccc2)c2ccc(Nc3nc(N4C[C@H](N)C[C@H](N)C4)nc(N4C[C@@H](N)C[C@H]4CN)n3)cc2O)cc1 [N-{4-[4-((2S,4S)-4-Amino-2-aminomethyl-pyrrolidin-1-yl)-6-((3R,5S)-3,5-diamino-piperidin-1-yl)-[1,3,5]triazin-2-ylamino]-2-hydroxy-phenyl}-N-benzyl-4-methyl-benzenesulfonamide] | – | < 64
26 | NCCN(CCN)c1nc(Nc2ccc(NC(=O)c3ccc(Cl)cc3)c(O)c2)nc(N2C[C@H](N)C[C@H](N)C2)n1 [N-{4-[4-[Bis-(2-amino-ethyl)-amino]-6-((3R,5S)-3,5-diamino-piperidin-1-yl)-[1,3,5]triazin-2-ylamino]-2-hydroxy-phenyl}-4-chloro-benzamide] | – | < 64
27 | O=S(=O)(Nc1ccc2cn[nH]c2c1)c1ccc(Nc2nc(N3CCCCC3)nc(N3CCNCC3)n2)cc1 [4-[4-((3S,5R)-3,5-Diamino-piperidin-1-yl)-6-piperazin-1-yl[1,3,5,-triazin-2-ylamino]-N-(1H-indazol-6-yl)-benzenesulfonamide] | > 64 | –
28 | N[C@@H]1C[C@H](N)CN(c2nc(Nc3ccc(S(=O)(=O)Nc4ccc5cn[nH]c5c4)cc3)nc(N3C[C@@H](N)C[C@H]3CO)n2)C1 [4-[4-((2S,4S)-4-Amino-2-hydroxymethyl-pyrrolidin-1-yl)-6-((3R,5S)-3,5-diamino-piperidin-1-yl)-[1,3,5]triazin-2-ylamino]-N-(1H-indazol-6-yl)-benzenesulfonamide] | – | > 64
